Assay results: US8183252B2, “Heterocyclic aspartyl protease inhibitors” (Schering Corporation, priority 2007, dated 2012)

Each molecule was assayed against T1, human BACE1 (sproBACE1) (Homo sapiens, UniProt P56817) (assay: BACE-1 Peptide Hydrolysis Assay (HTRF)). Conditions: not given.
T1 construct: sBACE1, corresponding to amino acids 1-454; made in house; host or cells: Sf9 insect cells (baculovirus), secreted into the medium
Format: biochemical
Source text: A HindIII/PmeI fragment from pCDNA4-sBACE1myc/His was blunt ended using Klenow and subcloned into the Stu I site of PFASTBACI(A) (Invitrogen). A sBACE1mycHis recombinant bacmid was generated by transposition in DH10Bac cells (GIBCO/BRL). Subsequently, the sBACE1mycHis bacmid construct was transfected into sf9 cells using CellFectin (Invitrogen, San Diego, Calif.) in order to generate recombinant baculovirus. […] Five milliliters of high titer plaque purified sBACEmyc/His virus was used to infect 1 L of logarithmically growing sf9 cells for 72 hours. Intact cells were pelleted by centrifugation at 3000×g for 15 minutes. The supernatant, containing secreted sBACE1, was collected and diluted 50% v/v with 100 mM HEPES, pH 8.0. The diluted medium was loaded onto a Q-sepharose column. The Q-sepharose column was washed with Buffer A (20 mM HEPES, pH 8.0, 50 mM NaCl).
Proteins, were eluted from the Q-sepharose column with Buffer B (20 mM HEPES, pH 8.0, 500 mM NaCl). The protein peaks from the Q-sepharose column were pooled and loaded onto a Ni-NTA agarose column. The Ni-NTA column was then washed with Buffer C (20 mM HEPES, pH 8.0, 500 mM NaCl). Bound proteins were then eluted with Buffer D (Buffer C+250 mM imidazole).
Reactions were initiated by addition of substrate in a 5 μl aliquot resulting in a total volume of 25 μl. After 3 hr at 30° C. reactions were terminated by addition of an equal volume of 2× stop buffer containing 50 mM Tris-HCl pH 8.0, 0.5 M KF, 0.001% Brij-35, 20 μg/ml SA-XL665 (cross-linked allophycocyanin protein coupled to streptavidin; CIS-Bio International, France) (0.5 μg/well). Plates were shaken briefly and spun at 1200×g for 10 seconds to pellet all liquid to the bottom of the plate before the incubation.
Y=Bottom+(Top-Bottom)/(1+10^((LogEC50−X)*Hill Slope)); X is the logarithm of concentration of I, Y is the percent change in ratio and Y starts at bottom and goes to top with a sigmoid shape.

T1 sequence (P56817 22-454): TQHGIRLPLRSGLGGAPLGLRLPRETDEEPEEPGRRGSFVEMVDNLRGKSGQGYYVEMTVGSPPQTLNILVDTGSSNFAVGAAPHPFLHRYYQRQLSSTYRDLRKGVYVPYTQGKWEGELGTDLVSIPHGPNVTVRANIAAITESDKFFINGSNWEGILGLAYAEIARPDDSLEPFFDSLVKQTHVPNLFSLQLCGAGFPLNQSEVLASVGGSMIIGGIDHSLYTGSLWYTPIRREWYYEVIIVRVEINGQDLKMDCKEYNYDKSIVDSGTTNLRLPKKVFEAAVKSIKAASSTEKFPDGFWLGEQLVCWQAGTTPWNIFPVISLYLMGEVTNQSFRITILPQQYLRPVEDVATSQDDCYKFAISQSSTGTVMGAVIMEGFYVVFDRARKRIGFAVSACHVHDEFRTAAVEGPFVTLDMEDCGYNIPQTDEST

SMILES	Ki
CS(=O)(=O)N1CCCC(CCN2C(=N)NC(c3ccccc3)(c3ccccc3)C2=O)C1 (racemic)	< 5 µM
CC(=O)N1CCC(CN2C(=N)NC(C)(c3cccc(-c4cnn(C)c4)c3)C2=O)CC1 (stereo not shown)	< 5 µM
CC(=O)N1CCC(CN2C(=N)NC(C)(c3cccc(-c4cccc5[nH]ccc45)c3)C2=O)CC1 (stereo not shown)	< 5 µM

Same assay, conditions: read-out: BACE-1 Ki

SMILES	Ki
CN1C(=N)N[C@](C)(c2csc3c(-c4cccc(C#N)c4)cccc23)CC1=O	< 5 µM
N=C1NC(c2cccc(-c3cccc(Cl)c3)c2)(C2CC2)C(=O)N1C1CCCC1 (stereo not shown) [4-imidazolidinone, 5-(3′-chloro[1,1′-biphenyl]-3-yl)-3-cyclopentyl-5-cyclopropyl-2-imino-]	< 5 µM
CN1OCC(C)(c2cccc(-c3cc(Cl)cc(Cl)c3)c2)NC1=N (stereo not shown)	< 5 µM
CN1C(=N)N[C@](C)(c2cc(-c3cccc(F)c3)c3sccc3c2)CC1=O	< 5 µM
CN1C(=N)NC(c2ccccc2)(c2cc(-c3cccc(F)c3)cs2)C1=O (stereo not shown) [5-[4-(3-FLUOROPHENYL)-2-THIENYL]-2-IMINO-3-METHYL-5-PHENYL-4-IMIDAZOLIDINONE]	< 5 µM
CCCC(=O)N1CCC[C@@H](CN2C(=N)NC(c3ccccc3)(c3ccccc3)C2=O)C1	< 5 µM
CN1C(=N)N[C@](C)(C[C@H]2CCC[C@@H](Nc3ccc4ccccc4n3)C2)C1=O	< 5 µM
CN1C(=N)N[C@](C)(c2cc(-c3cccnc3F)cs2)[C@@H](C2CC2)C1=O	< 5 µM
CN1C(=N)NC(C)(c2cccc(-c3cc(Cl)ccc3CCO)c2)C1=O (stereo not shown)	< 5 µM
Cc1cccc(-c2cccc(C3(C4CC4)NC(=N)N(C)C3=O)c2)n1 (stereo not shown)	< 5 µM
CCc1csc([C@]2(C)CC(=O)N(C)C(=N)N2)c1	< 5 µM
N=C1NC(c2ccccc2)(c2ccccc2)C(=O)N1CC1CCN(S(=O)(=O)c2ccc3ccccc3c2)CC1 [piperidine, 4-[(2-imino-5-oxo-4,4-diphenyl-1-imidazolidinyl)methyl]-1-(2-naphthalenylsulfonyl)-]	< 5 µM
N=C1NC(c2ccccc2)(c2ccccc2)C(=O)N1Cc1cccnc1	< 5 µM
CN1C(=N)N[C@](C)(c2ccc(F)cc2F)[C@@H](C2CCN(c3ccc(F)cc3)CC2)C1=O	< 5 µM
CN1C(=N)N[C@](C)(c2ccc3c(c2)c(Br)cn3C)CC1=O	< 5 µM
CN(c1cccc(CN2C(=N)NC(c3ccccc3)(c3ccccc3)C2=O)c1)S(C)(=O)=O	< 5 µM
C=C1C(=O)N(C)C(=N)N[C@]1(C)c1cccc(-c2cccc(C#N)c2)c1	< 5 µM
Cc1cc(F)ccc1[C@]1(C)CC(=O)N(C)C(=N)N1	< 5 µM
CN1C(=N)N[C@](C)(c2cc(-c3ccncc3)c3sccc3c2)CC1=O	< 5 µM
CN1C(=N)N[C@](CCC2CCCCC2)(C[C@H]2CCC[C@@H](N(C)C)C2)C1=O	< 5 µM
COc1cccc(-c2cc(F)cc(C3(c4ccccc4)NC(=N)N(C)C3=O)c2)c1 (racemic)	< 5 µM
CN1C(=N)NC(c2ccccc2)(c2cccc(-c3nccnc3Cl)c2)C1=O (racemic)	< 5 µM
CN1OCC(C)(c2cc(-c3ccc(F)c(C#N)c3)cs2)NC1=N (stereo not shown)	< 5 µM

SMILES	Ki
CN1C(=N)N[C@](C)(c2cnn(-c3cccc(I)c3)c2)CC1=O	< 5 µM
Cc1c(-c2cccc(OC(F)(F)F)c2)csc1[C@]1(C)CC(=O)N(C)C(=N)N1	< 5 µM
N=C1NC(c2ccccc2)(c2ccccc2)C(=O)N1CC1CCN(C(=O)C2(c3ccccc3)CC2)CC1	< 5 µM
CN1C(=N)NC(c2ccccc2)(c2cc(-c3cccc(C#N)c3)cs2)C1=O (stereo not shown) [3-[5-(2-IMINO-1-METHYL-5-OXO-4-PHENYL-4-IMIDAZOLIDINYL)-3-THIENYL]BENZONITRILE]	< 5 µM
CN1C(=N)NC(C)(c2ccc(F)c(-c3cccnc3)c2)C1=O (racemic)	< 5 µM
N=C1NC(c2ccccc2)(c2ccccc2)C(=O)N1Cc1cccc(NC(=O)CC2CCCC2)c1	< 5 µM
CC(=O)N1CCC(CN2C(=N)N[C@@](c3cccc(-c4cncc(Br)c4)c3)(C3CC3)C2=O)CC1	< 5 µM
CN1C(=N)NC(c2ccccc2)(c2cccc(NS(=O)(=O)c3ccccc3)c2)C1=O (racemic)	< 5 µM
CCN1C(=N)N[C@](C)(c2cc(-c3cccc(C#N)c3)cs2)CC1=O	< 5 µM
CN1C(=N)N[C@](C)(c2ccc(-c3cc(Cl)cc(C#N)c3)s2)[C@@H](C2CC2)C1=O	< 5 µM
CN1C(=N)NC(C)(c2cc(-c3cccc(C#N)c3)cs2)C(CC=Cc2cccc(F)c2)C1=O (stereo not shown)	< 5 µM
CS(=O)(=O)N1CCC(CN2C(=N)NC(c3ccccc3)(c3ccccc3)C2=O)CC1 [piperidine, 4-[(2-imino-5-oxo-4,4-diphenyl-1-imidazolidinyl)methyl]-1-(methylsulfonyl)-]	< 5 µM
Cc1ccc(CN2C(=N)NC(c3ccccc3)(c3ccccc3)C2=O)cc1	< 5 µM
Cc1cncc(-c2cccc(C3(C)NC(=N)N(C)C3=O)c2)c1 (racemic)	< 5 µM
CC(C)n1cc([C@H]2C(=O)N(C)C(=N)N[C@]2(C)c2cc(-c3cccc(C#N)c3)cs2)cn1	< 5 µM
CN1C(=N)NC(c2ccccc2)(c2cccc(-c3cc(Br)cc(OC(F)(F)F)c3)c2)C1=O (racemic)	< 5 µM
CN1C(=N)N[C@](C)(c2cc(C#N)cs2)[C@@H](c2ccc(C3CC3)cc2)C1=O	< 5 µM
CCC(C)N1C(=N)NC(c2cccc(-c3cccc(Cl)c3)c2)(C2CC2)C1=O (stereo not shown) [4-imidazolidinone, 5-(3′-chloro[1,1′-biphenyl]-3-yl)-5-cyclopropyl-2-imino-3-(1-methylpropyl)-]	< 5 µM
CN1C(=N)N[C@](C)(c2cc(-c3cccc(C#N)c3)c(Br)s2)CC1=O	< 5 µM
CN1C(=N)N[C@](C)(c2ccc(F)cc2F)CC1=O	< 5 µM
CN1C(=N)N[C@](C)(c2cc(-c3cc(C#N)ccc3O)cs2)CC1=O	< 5 µM
CN1C(=N)NC(c2cccc(-n3ccnc3)c2)(C2CC2)C1=O (stereo not shown) [5-CYCLOPROPYL-5-[3-(1H-IMIDAZOL-1-YL)PHENYL]-2-IMINO-3-METHYL-4-IMIDAZOLIDINONE]	< 5 µM
CN1C(=N)N[C@](C)(c2cc(Br)c(-c3cncc(C#N)c3)s2)CC1=O	< 5 µM

SMILES	Ki
CN1C(=N)N[C@](C)(c2ccc3c(c2)c(-c2cccs2)cn3C)CC1=O	< 5 µM
Cc1c(-c2ccc(F)c(C#N)c2)csc1[C@]1(C)CC(=O)N(C)C(=N)N1	< 5 µM
CC1(c2cccc(-c3cccnc3)c2)NC(=N)N(Cc2cccc(N3CCCCS3(=O)=O)c2)C1=O (racemic)	< 5 µM
CN(C)C(=O)N1CCC([C@H]2C(=O)N(C)C(=N)N[C@]2(C)c2cc(-c3cccc(C#N)c3)cs2)CC1	< 5 µM
COc1cc(-c2cccc([C@@]3(C4CC4)NC(=N)N(C)C3=O)c2)ccc1O	< 5 µM
C[C@H]1C(=O)N(C)C(=N)N[C@]1(C)c1cc(-c2cc(Cl)cc(C#N)c2)cs1	< 5 µM
CCc1cccc(-n2cc([C@]3(C)CC(=O)N(C)C(=N)N3)cn2)c1	< 5 µM
CCCC(=O)Nc1cccc(CN2C(=N)NC(c3ccccc3)(c3ccccc3)C2=O)c1 [BUTANAMIDE, N-[3-[(2-IMINO-5-OXO-4,4-DIPHENYL-1-IMIDAZOLIDINYL)METHYL]PHENYL]-]	< 5 µM
CC(C)S(=O)(=O)Nc1ccc(CN2C(=N)NC(c3ccccc3)(c3ccccc3)C2=O)cc1 [2-propanesulfonamide, N-[4-[(2-imino-5-oxo-4,4-diphenyl-1-imidazolidinyl)methyl]phenyl]-]	< 5 µM
CCCCS(=O)(=O)Nc1cccc(CN2C(=N)NC(c3ccccc3)(c3ccccc3)C2=O)c1	< 5 µM
COc1ccc([C@H]2C(=O)N(C)C(=N)N[C@]2(C)c2cncs2)cc1	< 5 µM
COc1ccc2c(c1)CC[C@@]21C(=O)N(C)C(=N)N[C@]1(C)c1cc(-c2cccc(C#N)c2)cs1	< 5 µM
CN1C(=N)N[C@](C)(c2ccc3scc(CCC4CC4)c3c2)CC1=O	< 5 µM
CN1C(=N)N[C@](C)(c2cc(-c3cncnc3)cs2)CC1=O	< 5 µM
CN1C(=N)N[C@](CCC2CCCCC2)(C[C@H]2CCC[C@@H](NC(=O)Cc3ccc4ccccc4c3)C2)C1=O	< 5 µM
CCC1(c2cc(-c3cccnc3)cs2)CC(=O)N(C)C(=N)N1 (stereo not shown)	< 5 µM
CCCN(CCC)C(=O)c1cccc(CN2C(=N)NC(C)(c3cccc(Br)c3)C2=O)c1 (racemic)	< 5 µM
CCN(CC)CCCN1C(=N)NC(c2cccc(-c3cccc(Cl)c3)c2)(C2CC2)C1=O (stereo not shown) [4-imidazolidinone, 5-(3′-chloro[1,1′-biphenyl]-3-yl)-5-cyclopropyl-3-[3-(diethylamino)propyl]-2-imino-]	< 5 µM
C[C@H]1C(=O)N(C)C(=N)N[C@]1(C)c1cc(-c2ccc(F)c(C#N)c2)cs1	< 5 µM
CN1C(=N)N[C@](C)(c2cc(-c3cc(Cl)cc(C#N)c3)cs2)CC1=O	< 5 µM
CN1C(=N)NC(C)(c2cc(-c3cccc(C#N)c3)cs2)C(CCCc2ccncc2)C1=O (stereo not shown)	< 5 µM
